Source: patent US20260294853A1, “COSMETIC COMPOSITION HAVING ANTI-INFLAMMATORY ACTIVITY” (LG CHEM, LTD., priority 2023, published 2026)

Tested on: Mouse macrophages
Experiment: Evaluation of Reactive Nitrogen Species Inhibiting Ability (nitric oxide production in LPS-treated mouse macrophages, Griess reagent)
Type: cell-based
Settings: under the treatment concentration of the 3-hydroxypropionic acid; LPS 1 μg/ml
Description: Mouse macrophages were divided into 1×10^6 cells in a 6-well plate and cultured for 24 hours, then treated with LPS (Lipopolysaccharide, concentration 1 μg/ml) solution, and treated with the 3-hydroxypropionic acid aqueous solution according to Preparation Example 1 at four concentrations (3HP concentration: 0 wt. %, 0.0125 wt. %, 0.025 wt. %, 0.05 wt. %), and then cultured again for 24 hours. Only the medium was then separated and centrifuged for 10 minutes to collect only the supernatant. The supernatant was mixed with Griess reagent (Sigma-Aldrich) reagent in a 1:1 ratio and reacted at room temperature, and then the absorbance (OD, wavelength 540 nm) was measured using a microplate reader. The measured value was substituted into the regression equation obtained from the standard curve prepared by reacting Griess reagent (Sigma-Aldrich) and NaNO2 in a 1:1 ratio to calculate the amount of nitric oxide (NO) produced. Here, the case in which neither the LPS solution nor the 3HP aqueous solution was treated was performed as a negative control group.

## O=C(O)CCO [3HP, 3-Hydroxypropionic acid]
  effect of inhibiting the production of reactive nitrogen species: the effect of inhibiting the production of reactive nitrogen species was exhibited
